Molecular target: T1, glycine-binding site of the NMDA receptor channel (Rattus norvegicus, UniProt P35439)
T1 construct: from tissue; host or cells: rat brain cortex and hippocampus membrane homogenate (male Wistar rats, Charles River)
Assay: Receptor binding test, displacement of (3H)-MDL 105.519 on rat brain membrane homogenates
Conditions: rat cortex and hippocampus membrane homogenate; for inhibition at 10 µM: (3H)-MDL 105.519; for Ki: 1 nmol/l (3H)-MDL 105.519, IC50 converted using Cheng-Prusoff equation
Method: The investigations for determining the affinity of the γ-lactone compounds of the general formula I according to the invention for the glycine-binding site of the NMDA receptor channel were performed on brain membrane homogenates (homogenate of cortex and hippocampus area from the brain of male rats, Wistar strain, Charles River, WIGA GmbH, Sulzbach, Germany), as described in B. M. Baron et al., Journal of Pharmacology and Experimental Therapeutics, vol. 279, pages 62-68, 1996. The corresponding literature description is hereby introduced as a reference and is deemed to be part of the disclosure.
To this end, the cortex and hippocampus were dissected out of freshly harvested rat brains and homogenised with ice cooling in 5 mmol/l of TRIS-acetate buffer, 0.32 mol/l of sucrose, pH 7.4 (10 ml/g fresh weight) using a Potter homogeniser (Braun, Melsungen, Germany, 10 piston strokes at 500 revolutions per minute (rpm)) and then centrifuged for 10 minutes at 1,000 g and 4° C. The first supernatant was collected and the sediment again homogenised with ice cooling with 5 mmol/l of TRIS-acetate buffer, 0,32 mol/l of sucrose, pH 7.4 (5 ml/g of original fresh weight of rat cerebral cortex and hippocampus) with the Potter homogeniser (10 piston strokes at 500 rpm) and centrifuged for 10 minutes at 1,000 g and 4° C. The resultant supernatant was combined with the supernatant from the first centrifugation and centrifuged at 17,000 g for 20 minutes at 4° C. The supernatant after this centrifugation was discarded and the membrane sediment was resuspended with 5 mmol/l of TRIS-acetate buffer, pH 8.0 (20 ml/g of original fresh weight) and homogenised with 10 piston strokes at 500 rpm.
The membrane homogenate was then incubated for 1 hour at 4° C. and centrifuged for 30 minutes at 50,000 g and 4° C. The supernatant was discarded and the centrifuge tubes containing the membrane sediment were sealed with Parafilm and frozen for 24 hours at −20° C. On the following day, the membrane sediment was thawed and resuspended with ice-cold 5 mmol/l TRIS-acetate buffer, 0,1% saponin (wt./vol.), pH 7.0 (10 ml/g of original fresh weight) and homogenised with 10 piston strokes at 500 rpm and then centrifuged for 20 minutes at 50,000 g and 4° C. The resultant supernatant was discarded and the sediment resuspended in a small volume with 5 mmol/l of TRIS-acetate buffer, pH 7.0 (approx. 2 ml/g of original fresh weight) and again homogenised with 10 piston strokes at 500 rpm. After determination of the protein content, the membrane homogenate was adjusted with 5 mmol/l TRIS-acetate buffer, pH 7.0, to a protein concentration of 10 mg of protein/ml and frozen in aliquots until used for testing.
The receptor binding test was performed by thawing aliquots, diluting them 1:10 with 5 mmol/l TRIS-acetate buffer, pH 7.0, homogenising them with ice-cooling with 10 piston strokes at 500 rpm with the Potter homogeniser and centrifuging them for 60 minutes at 55,000 g at 4° C. The supernatant was decanted and the membrane sediment adjusted with ice-cold 50 mmol/l TRIS-acetate buffer, pH 7.0, to a protein concentration of 1 mg/ml and again homogenised with 10 piston strokes at 500 rpm and kept in suspension in an ice bath with stirring on a magnetic stirrer. This membrane homogenate was used in the receptor binding test in a quantity of 100 μl per 1 ml batch (0.1 mg of protein/ml in the final batch).
In the binding test, 50 mmol/l TRIS-acetate buffer pH 7.0 was used as the buffer and 1 nmol/l of (^3H)-MDL 105.519 was used as the radioactive ligand, as described in the above-stated literature reference by B. M. Baron et al. The level of non-specific binding was determined in the presence of 1 mmol/l of glycine.
In further batches, the compounds of the general formula I according to the invention were added in concentration series and the displacement of the radioactive ligand from its specific binding at the glycine-binding site of the NMDA receptor channel was determined. […]

inhibition at 10 µM	Ki	Compound
80%	0.8 µM	CC1(c2ccccc2)CC(Nc2cc(Cl)cc(Cl)c2)C(=O)O1 (stereo not shown) [Example 12, 3-(3,5-Dichloro-phenylamino)-5-methyl-5-phenyl-dihydro-furan-2-one]
71%	1.3 µM	CC1(c2ccc(Cl)cc2)CC(Nc2cc(Cl)cc(Cl)c2)C(=O)O1 (stereo not shown) [Example 25, 5-(4-Chloro-phenyl)-3-(3,5-dichloro-phenylamino)-5-methyl-dihydro-furan-2-one]
62%		CCCCC1(c2ccccc2)CC(Nc2cc(Cl)cc(Cl)c2)C(=O)O1 (stereo not shown) [Example 108, 5-n-Butyl-3-(3,5-dichlorophenylamino)-5-phenyl-dihydrofuran-2-one]
70%	0.8 µM	CC1(c2ccc(F)cc2)CC(Nc2cc(Cl)cc(Cl)c2)C(=O)O1 (stereo not shown) [Example 13, 3-(3,5-Dichloro-phenylamino)-5-(4-fluoro-phenyl)-5-methyl-dihydro-furan-2-one]

From US6956055B2, “Substituted γ-lactone compounds as NMDA-antagonists” (Grunenthal GmbH, priority 2001, dated 2005)
